# Measurements published in patent US20240058334A1, “METHODS FOR TREATING SMALL CELL LUNG CANCER AND OTHER NEUROENDOCRINE CANCERS” (AstraZeneca AB, priority 2021, published 2024).
# System: SCLC cell lines
# Assay: 96 hr proliferation assay in SCLC cell lines
# Format: cell-based
# Details: for response to single agent ATR inhibitor: the three cell lines with greater than additive response to the combination, SLFN11 low group
SMILES,response to single agent ATR inhibitor,lurbinectedin IC50 values (cells with low expression of SLFN11 (FIG. 1))
CNCc1ccc(-c2cc(-c3nc(-c4ccc(S(=O)(=O)C(C)C)cc4)cnc3N)on2)cc1 [berzosertib],relatively resistant,–
C[C@@H]1COCCN1c1cc(C2([S@](C)(=N)=O)CC2)nc(-c2cc[nH]c3nccc2-3)n1 [ceralasertib],relatively resistant,–
COc1ccc2[nH]c3c(c2c1)CCN[C@]31CS[C@@H]2c3c(OC(C)=O)c(C)c4c(c3[C@H](COC1=O)N1[C@@H]2[C@H]2c3c(cc(C)c(OC)c3O)C[C@@H]([C@@H]1O)N2C)OCO4 [lurbinectedin],–,higher
